Experimental data as given in patent publication US8952163B2, “Substituted hydroxamic acids and uses thereof” (Millennium Pharmaceuticals, Inc., priority 2010, dated 2015).

Target: T1, purified human HDAC6 (Homo sapiens, UniProt Q9UBN7)
T1 construct: purchased BPS Bioscience 5006
T1 sequence (Q9UBN7 1-1215): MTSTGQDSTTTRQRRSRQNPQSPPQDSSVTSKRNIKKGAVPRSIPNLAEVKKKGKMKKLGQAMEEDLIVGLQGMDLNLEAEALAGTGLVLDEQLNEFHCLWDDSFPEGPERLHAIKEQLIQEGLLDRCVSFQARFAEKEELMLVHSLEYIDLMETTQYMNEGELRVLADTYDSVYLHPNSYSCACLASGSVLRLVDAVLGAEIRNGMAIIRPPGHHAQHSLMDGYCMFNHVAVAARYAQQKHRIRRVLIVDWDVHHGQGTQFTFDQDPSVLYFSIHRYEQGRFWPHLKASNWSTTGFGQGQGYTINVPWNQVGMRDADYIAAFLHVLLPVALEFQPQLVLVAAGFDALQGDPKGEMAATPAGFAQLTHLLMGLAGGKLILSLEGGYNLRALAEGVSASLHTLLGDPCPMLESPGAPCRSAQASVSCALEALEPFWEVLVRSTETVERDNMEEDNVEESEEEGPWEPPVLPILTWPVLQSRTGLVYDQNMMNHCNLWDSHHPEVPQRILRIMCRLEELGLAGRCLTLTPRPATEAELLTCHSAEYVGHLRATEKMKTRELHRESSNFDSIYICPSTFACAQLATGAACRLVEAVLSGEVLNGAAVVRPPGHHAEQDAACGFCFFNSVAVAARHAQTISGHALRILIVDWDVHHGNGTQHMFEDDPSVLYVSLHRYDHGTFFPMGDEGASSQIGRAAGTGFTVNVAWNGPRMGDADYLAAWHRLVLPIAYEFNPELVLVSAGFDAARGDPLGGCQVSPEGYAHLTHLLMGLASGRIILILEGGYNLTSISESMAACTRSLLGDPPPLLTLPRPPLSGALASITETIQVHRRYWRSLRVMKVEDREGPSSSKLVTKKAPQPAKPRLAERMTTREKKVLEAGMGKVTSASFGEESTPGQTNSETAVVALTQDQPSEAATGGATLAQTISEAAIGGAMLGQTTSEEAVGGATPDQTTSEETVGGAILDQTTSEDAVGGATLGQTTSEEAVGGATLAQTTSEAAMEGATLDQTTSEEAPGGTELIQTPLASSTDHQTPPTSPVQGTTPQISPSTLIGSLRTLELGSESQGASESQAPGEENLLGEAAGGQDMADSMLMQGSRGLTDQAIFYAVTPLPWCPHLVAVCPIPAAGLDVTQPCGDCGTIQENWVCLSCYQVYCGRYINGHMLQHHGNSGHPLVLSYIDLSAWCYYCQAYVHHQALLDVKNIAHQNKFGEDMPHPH
Assay: HDAC6 Enzyme Assay
Type: biochemical
Settings: test compound at 1.235 μM; substrate Ac-Arg-Gly-Lys(Ac)-AMC, 1 hour at 30° C.; read-out: Percent Inhibition at 1.235 μM
Description: To measure the inhibition of HDAC6 activity, purified human HDAC6 (BPS Bioscience; Cat. No. 5006) is incubated with substrate Ac-Arg-Gly-Lys(Ac)-AMC peptide (Bachem Biosciences; Cat. No. I-1925) for 1 hour at 30° C. in the presence of test compounds or vehicle DMSO control. The reaction is stopped with the HDAC inhibitor trichostatin A (Sigma; Cat. No. T8552) and the amount of Arg-Gly-Lys-AMC generated is quantitated by digestion with trypsin (Sigma; Cat. No. T1426) and subsequent measurement of the amount of AMC released using a fluorescent plate reader (Pherastar, BMG Technologies) set at Ex 340 nm and Em 460 nm. Concentration response curves are generated by calculating the fluorescence increase in test compound-treated samples relative to DMSO-treated controls, and percentage inhibition values at a single concentration or enzyme inhibition (IC50) values are determined from those curves. One skilled in the art will appreciate that the values generated either as percentage inhibition at a single concentration or IC50 values are subject to experimental variation.

Compound `O=C(NO)c1cnc2c(c1)CN(C(=O)c1cc3ccccc3s1)CC2` [Compound I-52, 6-(1-benzothien-2-ylcarbonyl)-N-hydroxy-5,6,7,8-tetrahydro-1,6-naphthyridine-3-carboxamide] has an inhibition at 1.235 µM of 97.4%.

`O=C(NO)c1cnc2c(c1)CN(C(=O)c1ccc(-c3ccccc3)cc1)CC2` [Compound I-53, 6-(biphenyl-4-ylcarbonyl)-N-hydroxy-5,6,7,8-tetrahydro-1,6-naphthyridine-3-carboxamide] was tested, and the inhibition at 1.235 µM was 96.9%.

In the case of `CCCCS(=O)(=O)N1CCc2nc(C(=O)NO)ccc2C1` [Compound I-61, 6-(butylsulfonyl)-N-hydroxy-5,6,7,8-tetrahydro-1,6-naphthyridine-2-carboxamide], the inhibition at 1.235 µM is reported as -3.95%.
